This is an account of results in PubChem BioAssay (NCI).

Holding throughout (experiment): inhibition of tumour cell growth, NCI panel, 48 h
Assay [1] deals with M14 melanoma.
Assay [2] relates to HOP-62 NSCLC.
For assay [3], the system named is SN12C renal.
Assay [4] relates to SK-OV-3 ovarian.
Assay [5] deals with EKVX NSCLC.
In assay [6] the test system is RPMI-8226 leukemia.
The subject of assay [7] is IGROV1 ovarian.
The test system of assay [8] is HOP-92 NSCLC.
Assay [9] has as its system K-562 leukemia.
The test system of assay [10] is OVCAR-8 ovarian.

Values joined by “and” are separate entries in the source; they are usually repeats but may differ in a detail not shown here. Equal entries are not always repeated.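 48-hour exposure; five concentrations; linearly interpolated endpoints. GI50 marks 50% less growth. At the TGI there is no net growth.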 Some results are limits rather than exact numbers.

Turning to `COc1cc(-c2cn(-c3ccc(Cl)c(Cl)c3)c(=O)n2C(C)=O)cc(OC)c1OC`, the GI50 in [1] is 16.7 µM; in assay [2], 7.48 µM; in [3] it was 12.3 µM; in [4], 15.4 µM; in assay [5] it was 2.6 µM; in assay [6], 10.5 µM. Further, the GI50 in [7] was 5.34 µM; in assay [8], 3.42 µM; in assay [9] it was 16.1 µM; in [10] it was 8.49 µM. The TGI amounted to 45.7 µM in assay [1]; 21.1 µM in [2]; 31.1 µM in assay [3]; 33.3 µM in assay [4]; 8.26 µM in [5]; 32.3 µM in assay [6]. Moreover, the TGI in [7] was 17.6 µM; in [8], 16.8 µM; in assay [9] it was greater than 100 µM; in assay [10], 31.9 µM.

Regarding `COC(=O)C1=C(C(=O)OC)SC(=CC#CC=C2SC(C(=O)OC)=C(C(=O)OC)S2)S1`, the TGI is greater than 76.2 µM in assay [1]; 12.2 µM in [2]; greater than 52.5 µM in assay [3]; 31.5 µM in [4]; greater than 100 µM in assay [5]; greater than 100 µM in assay [6]. Further, the TGI in assay [7] was 45.8 µM; in [8] it was 35.2 µM; in [9], greater than 100 µM; in [10] it was 20.8 µM.

As for `O=C(N/N=C(/CCN1CCCC1)CC(c1ccccc1)c1c(O)c2ccccc2oc1=O)c1ccncc1` (stereo not drawn), the TGI in [1], in assay [2], in assay [3], in [4], in [5] and in [6] was greater than 100 µM in each case. Besides, the TGI in assay [7], in assay [8], in [9] and in [10] was greater than 100 µM each time.

As to `COc1ccc2cc(-c3c(-c4ccncc4)nc(-c4ccc(S(C)(=O)=O)cc4C)n3C)ccc2c1`, the GI50 in assay [1] was 10.1 µM; in [2] it was 8.81 µM; in assay [3], 8.22 µM; in assay [4], 6.5 µM; in assay [5], 7.45 µM; in assay [6] it was 9.89 µM. Further, the GI50 in [7] was 7.47 µM; in assay [8] it was 5.16 µM; in assay [9], 6.88 µM; in assay [10] it was 9.01 µM. Further, the TGI was greater than 25 µM in assay [1]; greater than 23.9 µM in [2]; greater than 25 µM in [3]; 16.7 µM in [4]; greater than 25 µM in assay [5]; greater than 25 µM in [6]. Moreover, the TGI was greater than 25 µM in [7], 24.4 µM in assay [8], greater than 25 µM in [9] and greater than 25 µM in [10].

On to `CCOC(=O)/C=C/C1=C(c2cccs2)c2ccccc2CC1`, for which the GI50 in assay [1] was 32 µM; in [2], 38 µM; in assay [3], 28.3 µM; in [4], 31.6 µM; in assay [5] it was 27.8 µM; in assay [6], 21.2 µM. Further, the GI50 was 26.7 µM in assay [7], 37.4 µM in [8], 30.6 µM in assay [9] and 30.5 µM in [10]. For the same compound, the TGI in [1] is greater than 100 µM; in assay [2], greater than 100 µM; in [3], greater than 100 µM; in [4] it was greater than 100 µM; in assay [5] it was 86.7 µM; in assay [6] it was 49.4 µM. The TGI in assay [7] is 94.9 µM; in [8], greater than 100 µM; in assay [9], greater than 100 µM; in assay [10], greater than 100 µM.

Regarding `CN1CC[C@]2(C)c3ccc(O)cc3CC3CCCC1C32C` (stereo partly drawn), the TGI in assay [1], in assay [2], in [3], in assay [4], in assay [5] and in assay [6] was greater than 100 µM throughout. Also, the TGI in assay [7], in [8], in [9] and in assay [10] was greater than 100 µM each time.

With `COc1ccc(-c2oc3c(OC)c(OC)c(OC)c(OC)c3c(=O)c2OC)cc1OC`, the TGI in assay [1] was greater than 100 µM; in assay [2], 59.8 µM; in [3], greater than 100 µM; in assay [4], greater than 100 µM; in assay [5], greater than 100 µM; in assay [6], 34 µM. In addition, the TGI in [7] is greater than 100 µM; in [8] it was 0.0897 µM; in assay [9], greater than 100 µM; in assay [10], 93.6 µM.

Consider `CCCCN(CCCC)c1c([N+](=O)[O-])c(=O)nc2ccccn12`, for which the TGI in [1] is 83.3 µM; in assay [2] it was 73.6 µM; in assay [3] it was greater than 100 µM; in assay [4] it was greater than 100 µM; in assay [5], 94.1 µM; in [6], greater than 100 µM. The TGI in assay [7] was greater than 100 µM; in assay [8], greater than 100 µM; in assay [9], greater than 100 µM; in [10], 94.6 µM.

Turning to `COc1ccc(Cn2c3c(cc(OS(=O)(=O)C(F)(F)F)c2=O)Cc2ccccc2-3)cc1`, the GI50 is 11.4 µM in assay [1]; 5.91 µM in [3]; greater than 100 µM in assay [4]; 3.36 µM in [5]; 7.26 µM in [7]; 17.6 µM in [8]. In addition, the GI50 in assay [9] is 5.1 µM; in assay [10] it was 9.07 µM. The TGI in assay [1] was 15.4 µM and 30.8 µM; in assay [2], 50 µM; in assay [3] it was 50 µM and 47 µM; in [4] it was 50 µM and > 100 µM; in [5], 50 µM and > 100 µM; in assay [6] it was 50 µM. Also, the TGI in assay [7] is 50 µM and > 100 µM; in assay [8], 50 µM and > 100 µM; in [9] it was 50 µM and > 100 µM; in assay [10] it was 50 µM and > 100 µM.

As for `Cc1ccc(-c2cc(-c3ccccc3)c(C#N)c(=O)n2C2OC(CO)C(O)C(O)C2O)cc1` (stereo not drawn), the TGI in [1], in [2], in assay [3], in [4], in assay [5] and in assay [6] was greater than 100 µM each time. Moreover, the TGI in assay [7], in assay [8], in [9] and in assay [10] was greater than 100 µM throughout.
